Tested on: bicistronic HCV replicon (replicon RNA, GenBank Accession No. AJ242654)
Assay: HCV Replicon Assay
Format: cell-based
Details: Hepatitis C virus, 72 h, read-out: Replicon IC50

Q: `C[C@H](NS(=O)(=O)c1ccc(-c2c(C#N)c3ccc(CF)cc3n2C2CCC2)nc1)C1CC1` [compound 317, 6-[3-cyano-1-cyclobutyl-6-(fluoromethyl)-1H-indol-2-yl]-N-[(1S)-1-cyclopropylethyl]pyridine-3-sulfonamide] was tested. Which IC50 did it give?
A: Its IC50 is < 500 nM.

Q: For `N#Cc1c(-c2ccc(S(=O)(=O)NC(CF)CF)cn2)n(C2CCC2)c2cc(CF)ccc12` [compound 318, 6-[3-cyano-1-cyclobutyl-6-(fluoromethyl)-1H-indol-2-yl]-N-(1,3-difluoropropan-2-yl)pyridine-3-sulfonamide], which IC50 is on record?
A: Its IC50 is < 500 nM.

Q: For `N#Cc1c(-c2ncc(S(=O)(=O)NC(CF)CF)cn2)n(C2CCC2)c2cc(C(F)F)ccc12` [compound 330, 2-[3-cyano-1-cyclobutyl-6-(difluoromethyl)-1H-indol-2-yl]-N-(1,3-difluoropropan-2-yl)pyrimidine-5-sulfonamide], which IC50 is on record?
A: Its IC50 is < 500 nM.

Q: How did the IC50 turn out when `N#Cc1c(-c2ccc(S(=O)(=O)NC(CF)CF)cn2)n(C2CCC2)c2cc(C3CCC3)ccc12` [compound 342, 6-(3-cyano-1,6-dicyclobutyl-1H-indol-2-yl)-N-(1,3-difluoropropan-2-yl)pyridine-3-sulfonamide] was run?
A: Its IC50 is 500 to 2000 nM.

Q: For `C[C@H](NS(=O)(=O)c1ccc(-c2c(C#N)c3ccc(Cl)cc3n2C2CCCC2)nc1)C(F)(F)F` [compound 364, 6-(6-chloro-3-cyano-1-cyclopentyl-1H-indol-2-yl)-N-[(2S)-1,1,1-trifluoropropan-2-yl]pyridine-3-sulfonamide], which IC50 is on record?
A: The IC50 was < 500 nM.

Q: With `N#Cc1c(-c2ccc(S(=O)(=O)NC(CF)CF)cn2)n(C2CCC2)c2ccc(C(F)F)cc12` [compound 378, 6-[3-cyano-1-cyclobutyl-5-(difluoromethyl)-1H-indol-2-yl]-N-(1,3-difluoropropan-2-yl)pyridine-3-sulfonamide] as the compound, how does the IC50 read?
A: Its IC50 is < 500 nM.

Q: `N#Cc1c(-c2ncc(S(=O)(=O)NC(CF)CF)cn2)n(C2CCC2)c2ccc(C(F)F)cc12` [compound 379, 2-[3-cyano-1-cyclobutyl-5-(difluoromethyl)-1H-indol-2-yl]-N-(1,3-difluoropropan-2-yl)pyrimidine-5-sulfonamide] was tested. Which IC50 did it give?
A: Its IC50 is < 500 nM.

Q: `Cc1cc2c(cc1F)c(C#N)c(-c1ccc(S(=O)(=O)N[C@H](C)C(F)(F)F)cn1)n2C1CCCC1` [compound 409, 6-(3-cyano-1-cyclopentyl-5-fluoro-6-methyl-1H-indol-2-yl)-N-[(2R)-1,1,1-trifluoropropan-2-yl]pyridine-3-sulfonamide] was tested. Which IC50 did it give?
A: Its IC50 is < 500 nM.

Q: How did the IC50 turn out when `C[C@H](NS(=O)(=O)c1cnc(-c2c(C#N)c3ccc(Cl)cc3n2CC2CC2)nc1)C(F)(F)F` [compound 415, 2-[6-chloro-3-cyano-1-(cyclopropylmethyl)-1H-indol-2-yl]-N-[(2S)-1,1,1-trifluoropropan-2-yl]pyrimidine-5-sulfonamide] was run?
A: Its IC50 is < 500 nM.

Q: Which IC50 does the source give for `CC(C)n1c(-c2ncc(S(=O)(=O)N[C@@H](C)C(F)(F)F)cn2)c(C#N)c2cc(Cl)ccc21` [compound 420, 2-[5-chloro-3-cyano-1-(propan-2-yl)-1H-indol-2-yl]-N-[(2S)-1,1,1-trifluoropropan-2-yl]pyrimidine-5-sulfonamide] here?
A: Its IC50 is 500 to 2000 nM.

Q: `Cc1ccc2c(C#N)c(-c3ccc(S(=O)(=O)N[C@@H](C)C4CC4)cn3)n(C(C)C)c2c1` [compound 425, 6-[3-cyano-6-methyl-1-(propan-2-yl)-1H-indol-2-yl]-N-[(1S)-1-cyclopropylethyl]pyridine-3-sulfonamide] was tested. Which IC50 did it give?
A: Its IC50 is 500 to 2000 nM.

Q: `Cc1ccc2c(C#N)c(-c3ccc(S(=O)(=O)N[C@@H](C)C4CC4)cn3)n(C3CCCC3)c2c1` [compound 426, 6-(3-cyano-1-cyclopentyl-6-methyl-1H-indol-2-yl)-N-[(1S)-1-cyclopropylethyl]pyridine-3-sulfonamide] was tested. Which IC50 did it give?
A: Its IC50 is < 500 nM.

Q: With `C[C@H](NS(=O)(=O)c1ccc(-c2c(C#N)c3ccc(C4CC4)cc3n2C2CCCC2)nc1)C1CC1` [compound 433, 6-(3-cyano-1-cyclopentyl-6-cyclopropyl-1H-indol-2-yl)-N-[(1S)-1-cyclopropylethyl]pyridine-3-sulfonamide] as the compound, how does the IC50 read?
A: Its IC50 is < 500 nM.

Q: `C[C@H](NS(=O)(=O)c1ccc(-c2c(C#N)c3cc(F)ccc3n2C2CCC2)nc1)C(F)(F)F` [compound 434, 6-(3-cyano-1-cyclobutyl-5-fluoro-1H-indol-2-yl)-N-[(2S)-1,1,1-trifluoropropan-2-yl]pyridine-3-sulfonamide] was tested. Which IC50 did it give?
A: Its IC50 is < 500 nM.

Q: Which IC50 does the source give for `C[C@H](NS(=O)(=O)c1ccc(-c2c(C#N)c3cc(F)ccc3n2C2CCCC2)nc1)C(F)(F)F` [compound 435, 6-(3-cyano-1-cyclopentyl-5-fluoro-1H-indol-2-yl)-N-[(2S)-1,1,1-trifluoropropan-2-yl]pyridine-3-sulfonamide] here?
A: Its IC50 is < 500 nM.

Q: Which IC50 does the source give for `Cc1ccc2c(C#N)c(-c3ccc(S(=O)(=O)N[C@@H](C)C(F)(F)F)cn3)n(-c3ccccc3)c2c1` [compound 440, 6-(3-cyano-6-methyl-1-phenyl-1H-indol-2-yl)-N-[(2S)-1,1,1-trifluoropropan-2-yl]pyridine-3-sulfonamide] here?
A: The IC50 was < 500 nM.

Q: With `C[C@H](NS(=O)(=O)c1ccc(-c2c(C#N)c3ccc(OC(F)(F)F)cc3n2C2CCCCC2)nc1)C(F)(F)F` [compound 459, 6-[3-cyano-1-cyclohexyl-6-(trifluoromethoxy)-1H-indol-2-yl]-N-[(2S)-1,1,1-trifluoropropan-2-yl]pyridine-3-sulfonamide] as the compound, how does the IC50 read?
A: Its IC50 is < 500 nM.

Q: Which IC50 does the source give for `Cc1ccc2c(c1)c(C#N)c(-c1ccc(S(=O)(=O)N[C@H](C)C(F)(F)F)cn1)n2C1CCCC1` [compound 486, 6-(3-cyano-1-cyclopentyl-5-methyl-1H-indol-2-yl)-N-[(2R)-1,1,1-trifluoropropan-2-yl]pyridine-3-sulfonamide] here?
A: Its IC50 is < 500 nM.

Q: With `C[C@H](NS(=O)(=O)c1cnc(-c2c(C#N)c3ccc(F)cc3n2C2CCCC2)nc1)C1CC1` [compound 497, 2-(3-cyano-1-cyclopentyl-6-fluoro-1H-indol-2-yl)-N-[(1S)-1-cyclopropylethyl]pyrimidine-5-sulfonamide] as the compound, how does the IC50 read?
A: The IC50 was < 500 nM.

Q: With `N#Cc1c(-c2ccc(S(=O)(=O)NC(CF)CF)cn2)n(C2CCCC2)c2ccc(C(F)F)cc12` [compound 535, 6-[3-cyano-1-cyclopentyl-5-(difluoromethyl)-1H-indol-2-yl]-N-(1,3-difluoropropan-2-yl)pyridine-3-sulfonamide] as the compound, how does the IC50 read?
A: The IC50 was < 500 nM.

Q: For `C[C@H](NS(=O)(=O)c1ccc(-c2c(C#N)c3cc(F)c(OC(F)F)cc3n2C2CCC2)nc1)C(F)(F)F` [compound 549, 6-[3-cyano-1-cyclobutyl-6-(difluoromethoxy)-5-fluoro-1H-indol-2-yl]-N-[(2S)-1,1,1-trifluoropropan-2-yl]pyridine-3-sulfonamide], which IC50 is on record?
A: Its IC50 is < 500 nM.

Q: For `N#Cc1c(-c2ccc(S(=O)(=O)NC(CF)CF)cn2)n(C2CCCC2)c2cc(O)c(F)cc12` [compound 575, 6-(3-cyano-1-cyclopentyl-5-fluoro-6-hydroxy-1H-indol-2-yl)-N-(1,3-difluoropropan-2-yl)pyridine-3-sulfonamide], which IC50 is on record?
A: Its IC50 is < 500 nM.

Q: For `NC(=O)c1c(-c2ccc(S(=O)(=O)NC(CF)CF)cn2)n(C2CCC2)c2cc(C3CC3)ccc12` [compound 582, 1-cyclobutyl-6-cyclopropyl-2-{5-[(1,3-difluoropropan-2-yl)sulfamoyl]pyridin-2-yl}-1H-indole-3-carboxamide], which IC50 is on record?
A: Its IC50 is < 500 nM.

Q: With `CC(C)(NS(=O)(=O)c1ccc(-c2c(C#N)c3ccc(C4CC4)cc3n2-c2ccccn2)nc1)C(F)(F)F` [compound 584, 6-[3-cyano-6-cyclopropyl-1-(pyridin-2-yl)-1H-indol-2-yl]-N-(1,1,1-trifluoro-2-methylpropan-2-yl)pyridine-3-sulfonamide] as the compound, how does the IC50 read?
A: The IC50 was 500 to 2000 nM.

Q: Which IC50 does the source give for `N#Cc1c(-c2ncc(S(=O)(=O)NC(CF)CF)cn2)n(C2CCC2)c2cc(CC(F)F)ccc12` [compound 591, 2-[3-cyano-1-cyclobutyl-6-(2,2-difluoroethyl)-1H-indol-2-yl]-N-(1,3-difluoropropan-2-yl)pyrimidine-5-sulfonamide] here?
A: Its IC50 is < 500 nM.

Q: For `C[C@H](NS(=O)(=O)c1ccc(-c2c(C#N)c3ccc(CC(F)F)cc3n2C2CCCC2)nc1)C1CC1` [compound 594, 6-[3-cyano-1-cyclopentyl-6-(2,2-difluoroethyl)-1H-indol-2-yl]-N-[(1S)-1-cyclopropylethyl]pyridine-3-sulfonamide], which IC50 is on record?
A: Its IC50 is < 500 nM.

Q: How did the IC50 turn out when `N#Cc1c(-c2ccc(S(=O)(=O)NC(CF)CF)cn2)n(-c2ncccn2)c2ccc(F)cc12` [compound 608, 6-[3-cyano-5-fluoro-1-(pyrimidin-2-yl)-1H-indol-2-yl]-N-(1,3-difluoropropan-2-yl)pyridine-3-sulfonamide] was run?
A: Its IC50 is < 500 nM.

Q: With `N#Cc1c(-c2ccc(S(=O)(=O)NC(CF)CF)cn2)n(CC2CC2)c2cc(CC(F)F)ccc12` [compound 616, 6-[3-cyano-1-(cyclopropylmethyl)-6-(2,2-difluoroethyl)-1H-indol-2-yl]-N-(1,3-difluoropropan-2-yl)pyridine-3-sulfonamide] as the compound, how does the IC50 read?
A: Its IC50 is < 500 nM.

Q: Which IC50 does the source give for `C[C@H](NS(=O)(=O)c1ccc(-c2c(C#N)c3ccc(CC(F)F)cc3n2CC2CC2)nc1)C1CC1` [compound 617, 6-[3-cyano-1-(cyclopropylmethyl)-6-(2,2-difluoroethyl)-1H-indol-2-yl]-N-[(1S)-1-cyclopropylethyl]pyridine-3-sulfonamide] here?
A: The IC50 was < 500 nM.

Q: For `C[C@H](NS(=O)(=O)c1ccc(-c2c(C#N)c3ccc(CC(F)F)cc3n2CC2CC2)nc1)C(F)(F)F` [compound 618, 6-[3-cyano-1-(cyclopropylmethyl)-6-(2,2-difluoroethyl)-1H-indol-2-yl]-N-[(2S)-1,1,1-trifluoropropan-2-yl]pyridine-3-sulfonamide], which IC50 is on record?
A: Its IC50 is < 500 nM.

Q: Which IC50 does the source give for `CC(C)NS(=O)(=O)c1cnc(-c2c(C#N)c3ccc(CC(F)F)cc3n2CC2CC2)nc1` [compound 620, 2-[3-cyano-1-(cyclopropylmethyl)-6-(2,2-difluoroethyl)-1H-indol-2-yl]-N-(propan-2-yl)pyrimidine-5-sulfonamide] here?
A: The IC50 was < 500 nM.

Q: For `N#Cc1c(-c2ccc(S(=O)(=O)NC3(C(F)(F)F)CC3)cn2)n(-c2ccccn2)c2cc(OC(F)F)ccc12` [compound 623, 6-[3-cyano-6-(difluoromethoxy)-1-(pyridin-2-yl)-1H-indol-2-yl]-N-[1-(trifluoromethyl)cyclopropyl]pyridine-3-sulfonamide], which IC50 is on record?
A: The IC50 was 500 to 2000 nM.
